Data published in patent publication US9913816B2, “Method for applying metformin and sodium butyrate in K-ras mutation cancer treatment” (Johnpro Biotech Inc., priority 2013, dated 2018).

Test system: HCT116 cells
Settings: 72 hours; final concentration 0.75 mM sodium butyrate, 2 mM metformin, alone or both in combination; FIG. 1
Description: The human colon cancer cell HCT116 (cell line with K-ras mutation) is cultured in the McCoy's 5A with 10% fetal bovine serum. When the HCT116 cells are cultured to the appropriate number, then the adherent HCT116 cells are suspended, and 2.5×10^5 HCT116 cells per well are seeded in a 6-wells dish. After incubated for 12 hours, sodium butyrate with a final concentration of 0.75 mM, metformin with a final concentration of 2 mM, and the pharmaceutical composition with final concentration of […] are respectively added to the 6-wells dish as above mentioned.
In this embodiment, the final concentration as mentioned means the concentration of respective substances after added in the medium for cell culture, and therefore the medium respectively contains 0.75 mM sodium butyrate, 2 mM metformin, or 0.75 mM sodium butyrate and 2 mM metformin.
After respectably added the above compounds to HCT116 cells, the 6-well dish is incubated in an incubator of 37° C. for 72 hours. After that, the medium and compounds in each well are sequentially removed, and each well is washed by Phosphate Buffered Saline (PBS), then the HCT116 cells are harvested, by treating trypsin-EDTA, for apoptosis analysis.
The apoptosis analysis is based on the Annexin V apoptosis detection kit (BD Pharmingen) for analysis the exposure of phosphatidylserine, and the protocol follows the accompanying manual. In brief, the treated HCT116 cells are washed three times with PBS, and then immediately stained with Annexin V/Propidium Iodide (PI). 1% fetal bovine serum albumin (BSA) is first added to the treated cells. After subsequently added 222.5 μl of binding buffer, 10 μl of PI and 2.5 μl of Annexin V-FITC are directly then added to stain the cells, followed by immediate incubation for 10 minutes at low temperature in the dark. The percentage of the apoptosis is calculated by the flow cytometry and FACSCalibur, the analysis software thereof.

Row | SMILES | apoptotic rate of HCT116 cells | improvement of apoptotic rate compared to the control group
1 | CN(C)C(=N)N=C(N)N [metformin] | about 20% | about 15%
2 | CCCC(=O)[O-].[Na+] [sodium butyrate] | about 20% | about 15%
